Laboratory results taken from patent US11021435B2, “Serotonin receptor-targeting compounds and methods” (priority 2014, dated 2021).
“Also recorded” adds a separate entry of the source.

Key:
5-HT2A [1] = target: T1, 5-HT2A (Homo sapiens, UniProt P28223); assay: Radioreceptor competitive binding, [3H]ketanserin (4-PAT series); conditions: 2.0 nM [3H]ketanserin; HCl salts; read-out: Affinity (Ki ± SEM) 5-HT2A
Method: (§1) Radioreceptor competitive binding assays were carried out to assess the binding affinities of the compounds of the invention. Radioligand competitive displacement binding assays were performed in 96-well plates, using 3-5 μg of protein from membrane samples per well. Each concentration point in the binding experiments was performed in triplicates of samples, and each experiment was performed a minimum of three times. […] Non-specific binding was determined in the presence of or 10 μM mianserin for all three 5-HT2 receptors or 10 μM triprolidine for H1 receptors. Radioreceptor binding assay mixtures were incubated for 1.0 hour at 37° C., with termination by rapid filtration through Whatman GF/B filters using a 96-well cell harvester (Tomtec, Hamden, Conn.), which were subsequently washed five times with 50 mM Tris-HCl at room temperature. Filters containing bound [^3H]radioligand were dried, placed in vials containing 2 mL scintillation cocktail (ScintiVerse), allowed to equilibrate overnight, and then were counted for ^3H-induced scintillation using a Beckman-Coulter LS6500 counter.
(§2) Competition binding data were analyzed using nonlinear regression curve-fitting algorithms in GraphPad Prism, 6 for Windows (San Diego, Calif.). […] Ligand affinity was expressed as an approximation of Ki values by conversion of the IC50 value using the Cheng-Prusoff equation […] where L was the concentration of radioligand.

5-HT2B [2] = target: T2, 5-HT2B (Homo sapiens, UniProt P41595); assay: Radioreceptor competitive binding, [3H]mesulergine (4-PAT series); conditions: 1.95 nM [3H]mesulergine; read-out: Affinity (Ki ± SEM) 5-HT2B
Method: as §1, §2

5-HT2C [3] = target: T3, 5-HT2C (Homo sapiens, UniProt P28335); assay: as above; conditions: read-out: Affinity (Ki ± SEM) 5-HT2C
T3 sequence (P28335 33-458): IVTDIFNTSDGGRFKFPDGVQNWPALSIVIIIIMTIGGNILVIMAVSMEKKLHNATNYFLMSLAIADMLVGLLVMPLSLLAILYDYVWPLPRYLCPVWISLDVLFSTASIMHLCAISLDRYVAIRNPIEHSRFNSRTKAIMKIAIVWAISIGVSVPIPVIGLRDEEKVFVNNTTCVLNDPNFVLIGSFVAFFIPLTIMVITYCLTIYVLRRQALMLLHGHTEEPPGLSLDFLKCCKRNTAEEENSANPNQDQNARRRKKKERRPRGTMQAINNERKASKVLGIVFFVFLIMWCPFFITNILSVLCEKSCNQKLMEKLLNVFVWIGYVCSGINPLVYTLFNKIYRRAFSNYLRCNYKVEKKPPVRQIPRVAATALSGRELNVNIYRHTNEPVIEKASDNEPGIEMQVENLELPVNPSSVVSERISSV
Method: as §1, §2

H1 = H1 (Homo sapiens, UniProt P35367); assay: Radioreceptor competitive binding, [3H]mepyramine (4-PAT series); conditions: for Ki: 1.0 nM [3H]mepyramine, read-out: Affinity (Ki ± SEM) H1
Method: as §1, §2

[4] = target: T4, human 5-HT7 receptors (5-HT7a) (Homo sapiens, UniProt P34969); assay: Radioligand competition binding ([3H]5-CT), HEK293 cells stably expressing human 5-HT7 receptors; conditions: Affinity Ki 5-HT7, our unreported observations
T4 construct: expressed in transfected cells
Source text: FIGS. 4A-4C show the effects of 5-FPT are stereospecific. […] Data are expressed as the mean±SEM.

histamine H1 receptor = target: T5, histamine H1 receptor (Homo sapiens, UniProt P35367); assay: Receptor-mediated inositol phosphate hydrolysis, transfected HEK293 cells; format: cell-based
T5 construct: expressed in transfected cells; host or cells: HEK293, transient
Method: (§3) Functional responses of analog 7l and 5-HT (positive control agonist, data not shown) by measuring 5-HT2 and H1 receptor-mediated inositol phosphate hydrolysis were assessed. In brief, transiently transfected HEK293 cells were labeled with 1 μCi/ml [3H]myoinositol and seeded into 48-well plates. Cells were treated with test compounds for 30 minutes. The reaction was stopped by addition of 50 mM formic acid. Anion-exchange columns (Bio-Rad Laboratories, Hercules, Calif.) were used to bind and collect [3H]inositol phosphates. 3H-induced scintillations then were measured. Each experiment included a minimum of triplicate measurements for each concentration of test compound, and each experiment was performed a minimum of three times.

5-HT2A [5] = target: T1, 5-HT2A; assay: as above; format: cell-based; parameters: expressed in transfected cells; host or cells: HEK293, transient; conditions: concentrations up to 10 μM
Method: as §3

5-HT2B [6] = target: T2, 5-HT2B; assay: as above; format: cell-based; parameters: expressed in transfected cells; host or cells: HEK293, transient
Method: as §3

5-HT2C [7] = target: T3, 5-HT2C; assay: as above; format: cell-based; parameters: expressed in transfected cells; host or cells: HEK293, transient
Method: as §3, with “In” for “Functional responses of analog 7l and 5-HT (positive control agonist, data not shown) by measuring 5-HT2 and H1 receptor-mediated inositol phosphate hydrolysis were assessed. In”

5-HT2A [8] = target: T1, 5-HT2A; parameters: expressed in transfected cells; host or cells: HEK293, transient; conditions: cited from earlier work
5-HT2B [9] = target: T2, 5-HT2B; parameters: expressed in transfected cells; host or cells: HEK293, transient; conditions: cited from earlier work
C57BI/6J mice = assay: DOI-elicited head-twitch response (HTR) in C57BI/6J mice
Source text: The 5-HT2A receptor is a predominant 5-HT receptor in the cortex, and serves important excitation modulation functions on glutamate pyramidal and GABA neurons.

T1 sequence (P28223 whole entry): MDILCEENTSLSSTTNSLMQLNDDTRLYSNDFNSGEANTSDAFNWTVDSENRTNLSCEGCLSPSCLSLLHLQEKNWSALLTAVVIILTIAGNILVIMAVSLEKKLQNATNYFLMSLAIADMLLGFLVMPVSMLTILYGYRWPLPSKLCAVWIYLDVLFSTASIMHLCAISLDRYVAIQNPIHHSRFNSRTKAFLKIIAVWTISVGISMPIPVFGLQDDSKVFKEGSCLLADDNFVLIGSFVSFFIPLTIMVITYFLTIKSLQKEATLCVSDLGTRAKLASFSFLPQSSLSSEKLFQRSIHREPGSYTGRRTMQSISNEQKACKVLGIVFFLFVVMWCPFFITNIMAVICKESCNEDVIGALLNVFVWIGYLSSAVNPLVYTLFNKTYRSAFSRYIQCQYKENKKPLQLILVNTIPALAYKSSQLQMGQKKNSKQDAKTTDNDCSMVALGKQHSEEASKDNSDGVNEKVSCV
T2 sequence (P41595 whole entry): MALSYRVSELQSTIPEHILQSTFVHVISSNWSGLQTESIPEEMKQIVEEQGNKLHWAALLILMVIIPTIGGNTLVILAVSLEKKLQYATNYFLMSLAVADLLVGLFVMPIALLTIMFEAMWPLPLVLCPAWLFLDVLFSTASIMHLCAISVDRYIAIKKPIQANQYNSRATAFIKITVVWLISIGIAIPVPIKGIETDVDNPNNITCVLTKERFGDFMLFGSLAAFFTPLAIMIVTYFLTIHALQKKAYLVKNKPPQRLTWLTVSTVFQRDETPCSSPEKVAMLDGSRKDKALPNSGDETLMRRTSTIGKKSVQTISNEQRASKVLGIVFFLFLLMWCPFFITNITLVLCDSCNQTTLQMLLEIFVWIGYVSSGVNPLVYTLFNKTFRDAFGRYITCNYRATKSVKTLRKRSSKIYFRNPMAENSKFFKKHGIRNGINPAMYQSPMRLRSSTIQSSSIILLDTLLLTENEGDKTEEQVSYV
Chain of H1 (P35367 whole entry): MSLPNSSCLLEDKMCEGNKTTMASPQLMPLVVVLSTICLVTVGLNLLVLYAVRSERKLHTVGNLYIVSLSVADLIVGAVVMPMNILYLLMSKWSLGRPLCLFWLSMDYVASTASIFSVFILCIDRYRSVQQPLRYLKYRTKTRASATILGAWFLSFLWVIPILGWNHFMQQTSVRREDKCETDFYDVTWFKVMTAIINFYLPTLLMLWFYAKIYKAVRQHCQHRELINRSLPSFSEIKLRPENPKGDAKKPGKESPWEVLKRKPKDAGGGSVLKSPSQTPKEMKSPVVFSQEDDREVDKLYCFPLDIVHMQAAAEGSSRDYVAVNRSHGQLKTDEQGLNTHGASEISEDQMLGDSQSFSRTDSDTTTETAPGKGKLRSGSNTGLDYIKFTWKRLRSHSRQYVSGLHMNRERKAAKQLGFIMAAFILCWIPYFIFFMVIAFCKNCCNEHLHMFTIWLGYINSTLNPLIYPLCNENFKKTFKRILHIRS
T5 sequence (P35367 whole entry): as above
T4 sequence (P34969 1-445 isoform P34969-2): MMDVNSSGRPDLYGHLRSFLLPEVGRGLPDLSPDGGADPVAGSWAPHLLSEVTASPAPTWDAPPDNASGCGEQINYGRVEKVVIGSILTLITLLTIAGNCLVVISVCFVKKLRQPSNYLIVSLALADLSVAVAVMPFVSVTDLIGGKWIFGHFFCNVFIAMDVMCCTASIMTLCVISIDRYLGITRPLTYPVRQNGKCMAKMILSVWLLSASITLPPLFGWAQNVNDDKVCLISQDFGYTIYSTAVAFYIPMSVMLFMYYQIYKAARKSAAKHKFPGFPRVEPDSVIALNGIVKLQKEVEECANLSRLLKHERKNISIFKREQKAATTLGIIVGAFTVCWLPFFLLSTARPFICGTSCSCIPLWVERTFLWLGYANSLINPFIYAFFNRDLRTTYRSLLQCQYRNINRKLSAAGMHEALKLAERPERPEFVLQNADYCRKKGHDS

Row | Compound | Ki (5-HT2A [1]) [µM] | Ki (5-HT2B [2]) [µM] | Ki (5-HT2C [3]) [µM] | Ki (H1) [µM] | other results
1 | COc1ccc2c(c1)[C@@H](c1cccc(Cl)c1)C[C@H](N(C)C)C2 (single isomer, unassigned) [Compound 7k, Trans-4-(3′-Chlorophenyl)-6-methoxy-N,N-dimethyl-1,2,3,4-tetrahydronaphthalen-2-amine] | 0.35 ± 0.016 | 0.31 ± 0.041 | 0.28 ± 0.03 | 0.74 ± 0.08 | –
2 | COc1cc(CC(C)N)c(OC)cc1I (racemic) [DOI, (±)-2,5-dimethoxy-4-iodoamphetamine, reference compound] | – | – | – | – | Ki [4]: > 1 µM
3 | COc1cc2c(cc1Cl)C[C@@H](N(C)C)C[C@@H]2c1cccc(Br)c1 (single isomer, unassigned) [Compound 7j, Trans-4-(3′-Bromophenyl)-6-methoxy-7-chloro-N,N-dimethyl-1,2,3,4-tetrahydronaphthalen-2-amine] | 0.061 ± 0.015 | 0.05 | 0.13 ± 0.043 | 0.23 ± 0.033 | –
4 | COc1ccc2c(c1)[C@@H](c1cccc(Cl)c1)C[C@H](N(C)C)C2 (single isomer, unassigned) [Compound 7l, Trans-4-(3′-Chlorophenyl)-6-methoxy-N,N-dimethyl-1,2,3,4-tetrahydronaphthalen-2-amine] | 0.035 ± 0.003 | 0.065 | 0.017 ± 0.001 | 0.086 ± 0.018 | Reduced affinity at H1 receptors compared to unsubstituted PAT (7b) (H1): > 40 fold; Efficacy H1, Imax (histamine H1 receptor; inverse agonist): −25 ± 1.5%; IC50 (histamine H1 receptor; mean ± S.E.M.): 0.048 µM; Function 5-HT2A (activation) (5-HT2A [5]): did not activate; Function 5-HT2A (activation) (5-HT2A [5]; listed as 71): No; Efficacy 5-HT2B, Imax (5-HT2B [6]; inverse agonist): Imax = −17 ± 4.6%; IC50 (5-HT2B [6]; mean ± S.E.M.): 0.051 µM; Emax (5-HT2C [7]; HEK293, read-out: Efficacy 5-HT2C, EMAX): 73 ± 6%; EC50 (5-HT2C [7]; read-out: Function 5-HT2C, EC50 (agonist potency)): 0.019 ± 0.001 µM
5 | C[C@H](N)Cn1ccc2cc(F)c(Cl)cc21 [Ro60-0175] | – | – | – | – | Activation of 5-HT2A receptors by reported selective 5-HT2C agonists (5-HT2A [8]): also activate; Activation of 5-HT2B receptors by reported selective 5-HT2C agonists (5-HT2B [9]): also activate
6 | COc1cc2c(cc1Cl)C[C@@H](N(C)C)C[C@@H]2c1ccccc1 (single isomer, unassigned) | 0.16 ± 0.024 | 0.0173 ± 0.00533 | 0.024 ± 0.0025 | 0.0012 ± 0.0006 | –
7 | COc1cc2c(cc1Cl)CC(N(C)C)CC2c1cccc(Cl)c1 (single isomer, unassigned) [Compound 7f] | 0.05 ± 0.02 | 0.056 | 0.009 ± 0.002 | 0.0189 ± 0.0007 | –
8 | COc1cc2c(cc1Cl)C[C@@H](N(C)C)C[C@@H]2c1cccc(Br)c1 (single isomer, unassigned) [Compound 7i, Trans-4-(3′-Bromophenyl)-6-methoxy-7-chloro-N,N-dimethyl-1,2,3,4-tetrahydronaphthalen-2-amine] | 0.079 ± 0.014 | 0.169 ± 0.027 | 0.35 ± 0.13 | 0.65 ± 0.021 | –
9 | Cc1nn(C)c(C)c1-c1cccc2c1CC[C@H](N(C)C)C2 [AS-19, reference compound] | – | – | – | – | DOI-elicited HTR (C57BI/6J mice; C57BI/6J mice, DOI 1 mg/kg, 5-FPT up to 5.6 mg/kg, AS-19 10 mg/kg, DPAT 0.5 mg/kg): suppressed the DOI HTR; also recorded: attenuated the HTR; Locomotor behavior and serotonin syndrome seen in the DOI HTR assay (C57BI/6J mice; data not shown): neither (−)-DPAT, a 5-HT1A partial agonist, nor AS-19 affected locomotor behavior or caused obvious serotonin syndrome
10 | C[C@H]1CNCCc2ccc(Cl)cc21 [lorcaserin] | – | – | – | – | Activation of 5-HT2A receptors by reported selective 5-HT2C agonists (5-HT2A [8]): also activate; Activation of 5-HT2B receptors by reported selective 5-HT2C agonists (5-HT2B [9]): also activate
11 | CN(C)[C@@H]1Cc2cc(Cl)c(O)cc2[C@@H](c2ccccc2)C1 (single isomer, unassigned) [Compound 7m, Trans-4-Phenyl-6-hydroxy-7-chloro-N,N-dimethyl-1,2,3,4-tetrahydronaphthalen-2-amine] | 0.07 ± 0.0026 | 1.2 | 1 | 0.109 ± 0.017 | –
12 | COc1cc2c(cc1Cl)C[C@@H](N(C)C)C[C@H]2c1ccccc1 (single isomer, unassigned) [Compound 7d, Cis-4-Phenyl-6-methoxy-7-chloro-N,N-dimethyl-1,2,3,4-tetrahydronaphthalen-2-amine] | 0.32 ± 0.042 | 0.043 ± 0.005 | 0.096 ± 0.018 | 0.0108 ± 0.0006 | –
13 | CN(C)[C@@H]1Cc2cc(Cl)c(O)cc2[C@@H](c2ccccc2)C1 (single isomer, unassigned) [Compound 7n, Trans-4-Phenyl-6-hydroxy-7-chloro-N,N-dimethyl-1,2,3,4-tetrahydronaphthalen-2-amine] | 0.06 ± 0.0054 | 0.091 | 0.023 ± 0.003 | 0.003 ± 0.001 | –
14 | COc1cc2c(cc1Cl)C[C@@H](N(C)C)C[C@H]2c1ccccc1 (single isomer, unassigned) [Compound 7c, Cis-4-Phenyl-6-methoxy-7-chloro-N,N-dimethyl-1,2,3,4-tetrahydronaphthalen-2-amine] | 2.3 | 2.5 | 1.6 | > 1 | Lower H1 receptor affinity than (+)-cis-PAT 1c analog (H1): about 10 fold
